Experimental findings from patent US9440952B2, “Compounds inhibiting leucine-rich repeat kinase enzyme activity” (Merck Sharp & Dohme Corp., priority 2013, dated 2016) are described below.

Common to all, as to type: biochemical
Experiment [1] has as its target T1, LRRK2(G2019S mutation, GST-LRRK2(amino acids 970-2527)) (Homo sapiens, UniProt Q5S007, G2019S).
T1 construct: GST-LRRK2(amino acids 970-2527); GST (N); purchased Life Technologies Corporation
Nature of the experiment: LRRK2 Km ATP LanthaScreen Assay. Particulars: Km ATP LanthaScreen; mean IC50 of several tests; read-out: LRRK2 IC50. A digest of the protocol:
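IC50 values are means of several runs in the Km-ATP LanthaScreen format, analysed by curve fitting of the LanthaScreen read-out.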
(In general: In TR-FRET formats the signal depends on donor and acceptor labels being close together.)

For experiment [2], the target named is T1, LRRK2(G2019S mutation, GST-LRRK2(amino acids 970-2527)). Nature of the experiment: LRRK2 5 mM ATP LanthaScreen Assay. Particulars: mean IC50 of several tests. On the procedure: The data presented for the 5 mM and Km ATP LanthaScreen™ Assay represents mean IC50 values based on several test results and may have reasonable. deviations depending on the specific conditions and reagents used. Reagents for the LRRK2 5 mM and Km ATP LanthaScreen™ Assay were purchased from Life Technologies Corporation.
LRRK2 5 mM ATP LanthaScreen™ Assay • a) 400 nl of a 1:2.15 serial dilution of test compound (98 μM top assay concentration) is spotted via Labcyte Echo to certain wells in a 384 well black, untreated plate. […] Results are analysed using Assay Data Analyzer.

For experiment [3], the target named is T2, kinases (Table B) (Homo sapiens, UniProt O96017).
T2 construct: purchased Life Technologies Corporation
T2 sequence (O96017 whole entry): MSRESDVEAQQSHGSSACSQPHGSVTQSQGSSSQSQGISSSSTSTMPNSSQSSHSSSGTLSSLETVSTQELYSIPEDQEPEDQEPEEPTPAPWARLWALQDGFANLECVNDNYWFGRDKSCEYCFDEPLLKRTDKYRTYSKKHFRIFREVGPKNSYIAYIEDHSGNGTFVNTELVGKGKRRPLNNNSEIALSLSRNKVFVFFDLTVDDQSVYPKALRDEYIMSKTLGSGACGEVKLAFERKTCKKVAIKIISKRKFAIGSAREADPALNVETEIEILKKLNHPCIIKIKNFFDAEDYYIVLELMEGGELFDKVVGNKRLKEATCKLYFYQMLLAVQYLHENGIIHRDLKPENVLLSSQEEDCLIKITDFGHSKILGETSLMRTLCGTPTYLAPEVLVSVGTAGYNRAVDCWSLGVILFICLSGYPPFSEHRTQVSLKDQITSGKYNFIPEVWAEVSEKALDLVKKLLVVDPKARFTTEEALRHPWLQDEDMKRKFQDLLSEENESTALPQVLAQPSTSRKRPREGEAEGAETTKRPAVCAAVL
The experiment can be described thus: Kinase selectivity, Z'-LYTE or Adapta assay platforms (Life Technologies). Particulars: CHEK2 (CHK2), Z-LYTE, read-out: percent inhibition CHEK2 (CHK2); for inhibition at 1 µM: test conc 1 μM.

Experiment [4] addresses T3, kinases (Table B) (Homo sapiens, UniProt P15056, V600E).
T3 construct: purchased Life Technologies Corporation
The experiment is described as above. Particulars: BRAF V599E, Z-LYTE, read-out: percent inhibition BRAF V599E; for inhibition at 1 µM: test conc 1 μM.

The target of experiment [5] is T4, kinases (Table B) (Homo sapiens, UniProt P28482).
T4 construct: purchased Life Technologies Corporation
T4 sequence (P28482 whole entry): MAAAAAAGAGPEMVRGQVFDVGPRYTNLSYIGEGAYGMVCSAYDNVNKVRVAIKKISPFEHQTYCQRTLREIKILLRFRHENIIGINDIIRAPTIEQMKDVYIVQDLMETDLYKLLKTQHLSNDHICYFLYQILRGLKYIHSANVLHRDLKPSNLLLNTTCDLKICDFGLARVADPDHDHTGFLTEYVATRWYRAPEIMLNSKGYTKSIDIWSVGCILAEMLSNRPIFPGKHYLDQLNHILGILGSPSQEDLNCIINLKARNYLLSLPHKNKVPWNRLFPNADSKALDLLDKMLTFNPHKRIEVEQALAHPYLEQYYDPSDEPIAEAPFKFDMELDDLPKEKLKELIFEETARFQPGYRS
Described as above. Particulars: MAPK1 (ERK2), Z-LYTE, read-out: percent inhibition MAPK1 (ERK2); for inhibition at 1 µM: test conc 1 μM.

Experiment [6] addresses T5, kinases (Table B) (Homo sapiens, UniProt P45983).
T5 construct: purchased Life Technologies Corporation
The experiment is described as above. Particulars: MAPK8 (JNK1), Z-LYTE, read-out: percent inhibition MAPK8 (JNK1); for inhibition at 1 µM: test conc 1 μM.

Experiment [7] has as its target T6, kinases (Table B) (Homo sapiens, UniProt Q13627).
T6 construct: purchased Life Technologies Corporation
The description is as above. The following applies: DYRK1A, Z-LYTE, read-out: percent inhibition DYRK1A; for inhibition at 1 µM: test conc 1 μM.

In experiment [8] the target is T7, kinases (Table B) (Homo sapiens, UniProt Q96GD4).
T7 construct: purchased Life Technologies Corporation
T7 sequence (Q96GD4 whole entry): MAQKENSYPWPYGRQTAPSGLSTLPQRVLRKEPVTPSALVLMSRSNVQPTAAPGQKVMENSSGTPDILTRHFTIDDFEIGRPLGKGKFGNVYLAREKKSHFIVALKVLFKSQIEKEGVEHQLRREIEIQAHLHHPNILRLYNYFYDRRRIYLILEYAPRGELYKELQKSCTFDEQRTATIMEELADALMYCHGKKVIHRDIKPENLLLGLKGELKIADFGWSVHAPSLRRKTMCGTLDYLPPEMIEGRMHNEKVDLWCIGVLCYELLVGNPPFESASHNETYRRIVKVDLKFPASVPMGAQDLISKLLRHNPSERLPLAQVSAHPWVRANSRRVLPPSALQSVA
The experiment is described as above. The following applies: AURKB (Aurora B), Z-LYTE, read-out: percent inhibition AURKB (Aurora B); for inhibition at 1 µM: test conc 1 μM.

In experiment [9] the test system is kinases (Table B). Described as above. The following applies: for percent inhibition CDK1/cyclin B / percent inhibition CLK2 / percent inhibition JAK3: Z-LYTE; for percent inhibition IRAK1: Adapta.

Molecules are shown by their SMILES.

T3 sequence (P15056 whole entry V600E): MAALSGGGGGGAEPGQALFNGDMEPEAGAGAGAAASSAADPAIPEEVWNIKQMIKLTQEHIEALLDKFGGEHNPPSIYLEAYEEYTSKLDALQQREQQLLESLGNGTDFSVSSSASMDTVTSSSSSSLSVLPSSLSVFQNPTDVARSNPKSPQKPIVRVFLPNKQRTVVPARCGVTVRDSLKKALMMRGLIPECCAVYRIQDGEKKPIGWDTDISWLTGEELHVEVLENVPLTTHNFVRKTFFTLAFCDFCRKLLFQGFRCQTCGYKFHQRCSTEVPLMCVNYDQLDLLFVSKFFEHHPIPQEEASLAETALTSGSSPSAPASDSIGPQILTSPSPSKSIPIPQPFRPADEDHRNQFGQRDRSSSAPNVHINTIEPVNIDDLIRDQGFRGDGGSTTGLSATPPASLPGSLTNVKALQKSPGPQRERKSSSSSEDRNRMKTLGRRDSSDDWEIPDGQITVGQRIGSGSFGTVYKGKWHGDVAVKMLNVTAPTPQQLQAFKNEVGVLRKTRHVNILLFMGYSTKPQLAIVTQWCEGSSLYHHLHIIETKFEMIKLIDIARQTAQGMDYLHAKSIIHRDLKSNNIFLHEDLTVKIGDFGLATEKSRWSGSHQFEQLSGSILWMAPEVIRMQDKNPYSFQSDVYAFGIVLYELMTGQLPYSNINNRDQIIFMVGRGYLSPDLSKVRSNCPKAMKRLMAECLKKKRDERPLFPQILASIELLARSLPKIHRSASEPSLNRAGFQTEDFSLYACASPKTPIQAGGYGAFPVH
T5 sequence (P45983 whole entry): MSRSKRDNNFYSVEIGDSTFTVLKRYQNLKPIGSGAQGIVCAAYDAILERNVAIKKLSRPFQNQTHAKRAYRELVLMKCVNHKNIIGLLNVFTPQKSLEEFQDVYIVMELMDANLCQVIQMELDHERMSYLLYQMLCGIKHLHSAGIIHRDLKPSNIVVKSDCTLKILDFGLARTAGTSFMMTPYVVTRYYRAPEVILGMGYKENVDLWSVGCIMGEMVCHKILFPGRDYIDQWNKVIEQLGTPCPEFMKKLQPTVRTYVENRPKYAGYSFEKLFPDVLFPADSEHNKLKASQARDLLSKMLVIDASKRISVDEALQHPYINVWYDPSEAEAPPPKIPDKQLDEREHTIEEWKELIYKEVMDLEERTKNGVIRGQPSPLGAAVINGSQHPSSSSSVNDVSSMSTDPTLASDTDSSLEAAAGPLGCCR
T1 sequence (Q5S007 970-2527 G2019S): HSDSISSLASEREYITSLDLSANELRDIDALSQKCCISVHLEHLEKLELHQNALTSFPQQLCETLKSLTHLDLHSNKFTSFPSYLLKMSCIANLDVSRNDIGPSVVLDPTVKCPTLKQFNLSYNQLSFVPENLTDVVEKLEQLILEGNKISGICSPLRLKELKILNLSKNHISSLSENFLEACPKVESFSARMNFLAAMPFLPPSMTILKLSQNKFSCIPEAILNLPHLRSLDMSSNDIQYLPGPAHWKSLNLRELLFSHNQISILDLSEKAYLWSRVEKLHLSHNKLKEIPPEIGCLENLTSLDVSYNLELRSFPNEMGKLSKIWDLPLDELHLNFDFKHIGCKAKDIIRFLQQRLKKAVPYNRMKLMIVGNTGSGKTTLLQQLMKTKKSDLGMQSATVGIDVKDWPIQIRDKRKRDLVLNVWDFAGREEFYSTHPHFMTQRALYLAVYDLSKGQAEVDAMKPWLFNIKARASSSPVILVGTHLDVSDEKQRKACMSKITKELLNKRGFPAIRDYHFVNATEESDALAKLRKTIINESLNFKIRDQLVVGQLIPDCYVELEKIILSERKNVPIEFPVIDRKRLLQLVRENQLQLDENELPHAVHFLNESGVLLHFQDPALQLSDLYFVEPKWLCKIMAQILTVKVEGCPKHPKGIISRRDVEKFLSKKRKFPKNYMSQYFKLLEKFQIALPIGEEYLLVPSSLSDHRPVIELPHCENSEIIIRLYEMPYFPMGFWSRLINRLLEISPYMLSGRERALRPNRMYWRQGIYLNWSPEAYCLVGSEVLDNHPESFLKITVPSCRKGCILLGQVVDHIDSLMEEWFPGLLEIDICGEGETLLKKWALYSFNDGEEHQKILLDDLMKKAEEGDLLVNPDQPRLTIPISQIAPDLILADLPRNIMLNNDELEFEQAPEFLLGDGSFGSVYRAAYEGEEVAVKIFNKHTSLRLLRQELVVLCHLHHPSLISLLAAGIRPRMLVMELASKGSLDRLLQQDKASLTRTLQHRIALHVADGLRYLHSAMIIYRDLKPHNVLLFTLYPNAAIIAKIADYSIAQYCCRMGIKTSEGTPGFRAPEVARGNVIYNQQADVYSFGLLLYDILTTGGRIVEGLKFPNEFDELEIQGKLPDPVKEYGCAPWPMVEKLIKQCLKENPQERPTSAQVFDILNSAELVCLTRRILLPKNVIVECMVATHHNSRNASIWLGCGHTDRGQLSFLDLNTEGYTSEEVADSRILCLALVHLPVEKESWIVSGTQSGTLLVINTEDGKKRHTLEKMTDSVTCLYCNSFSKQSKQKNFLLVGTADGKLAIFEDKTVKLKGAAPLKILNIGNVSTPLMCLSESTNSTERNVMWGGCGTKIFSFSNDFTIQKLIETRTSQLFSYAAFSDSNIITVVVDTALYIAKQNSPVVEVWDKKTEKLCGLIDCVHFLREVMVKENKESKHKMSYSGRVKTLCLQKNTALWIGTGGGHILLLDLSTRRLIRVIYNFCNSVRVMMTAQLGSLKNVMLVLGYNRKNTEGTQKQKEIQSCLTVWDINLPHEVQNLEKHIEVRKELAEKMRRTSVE

What is called IC50 is the midpoint of a concentration-inhibition curve. For orientation: inhibition means the change of the read-out against control, counted positive when it falls. Regarding `CC(C)Oc1ccc2[nH]nc(-c3ccnc(N4CCN(S(C)(=O)=O)CC4)c3)c2c1` [Example 289], the IC50 in [1] is 2.7 nM; in experiment [2] it was 16 nM. In addition, the inhibition at 1 µM on kinases (Table B) [3] was determined as 26%; on kinases (Table B) [4] it was 64%; on kinases (Table B) [5], 55%; on kinases (Table B) [6], 54%; on kinases (Table B) [7] it was 12%; at kinases (Table B) [8], 23%. Also, the “percent inhibition CDK1/cyclin B” value in the experiment with kinases (Table B) [9] (test conc 1 μM) is reported as 18%. In the experiment with kinases (Table B) [9] (test conc 1 μM), the “percent inhibition CLK2” value is 49%. Besides, the “percent inhibition IRAK1” value with kinases (Table B) [9] (test conc 1 μM) is given as 6%. For the same molecule, the “percent inhibition JAK3” value with kinases (Table B) [9] (test conc 1 μM) was found to be 29%.
As to `Cn1cc(-c2ccc3[nH]nc(-c4ccnc(N5CCN(S(C)(=O)=O)CC5)c4)c3c2)cn1` [Example 381], the half-inhibitory concentration (IC50) in [1] is 1.9 nM; in [2], 24 nM. Also, the inhibition at 0.1 µM on kinases (Table B) [3] (test conc 0.100 μM) was 19%; on kinases (Table B) [4] (test conc 0.100 μM) it was 11%; at kinases (Table B) [5] (test conc 0.100 μM), 11%; at kinases (Table B) [6] (test conc 0.100 μM) it was 25%; on kinases (Table B) [7] (test conc 0.100 μM), 78%; on kinases (Table B) [8] (test conc 0.100 μM), 13%. For the same molecule, in the experiment with kinases (Table B) [9] (test conc 0.100 μM), the “percent inhibition CDK1/cyclin B” value is reported as 26%. Moreover, the “percent inhibition CLK2” value in the experiment with kinases (Table B) [9] (test conc 0.100 μM) was 91%. The “percent inhibition IRAK1” value with kinases (Table B) [9] (test conc 0.100 μM) is 20%. Further, the “percent inhibition JAK3” value in the experiment with kinases (Table B) [9] (test conc 0.100 μM) was found to be 4%.
For `CC(C)Oc1ccc2[nH]nc(-c3ccnc(N4CCOCC4)c3)c2c1` [Example 400], the values for the IC50 in experiment [1] and in experiment [2] were 1.9 nM and 14 nM, respectively. For the same molecule, the inhibition at 1 µM turned out to be 16% on kinases (Table B) [3]; 51% at kinases (Table B) [4]; 41% on kinases (Table B) [5]; 72% at kinases (Table B) [6]; 9% at kinases (Table B) [7]; 9% on kinases (Table B) [8]. For the same molecule, the “percent inhibition CDK1/cyclin B” value in the experiment on kinases (Table B) [9] (test conc 1 μM) stood at 29%. Moreover, the “percent inhibition CLK2” value in the experiment with kinases (Table B) [9] (test conc 1 μM) is 47%. Besides, in the experiment on kinases (Table B) [9] (test conc 1 μM), the “percent inhibition IRAK1” value stood at 11%. For the same molecule, the “percent inhibition JAK3” value with kinases (Table B) [9] (test conc 1 μM) is 49%.
